In assay [1] the test system is breast cancer cell lines (e.g. MDA-MB-231, SK-BR-3, MDA-MB-468, HCC1954). Put plainly: Cell based assay, cell viability (CellTiter-Glo), breast cancer cell lines. The following applies: 72 hours, CellTiter-Glo. Here is the method: (§1) Commercially available bladder cancer, prostate cancer, lung cancer, breast cancer, blood cancer, pancreatic cancer, colorectal cancer, brain cancer, neuroblastoma, melanoma, liver cancer, cervical carcinoma, ovarian cancer, renal cancer, and papilloma cell lines were each treated with trypsin-EDTA and cultured, followed by being seeded in each well of a 96 well plate. After 24 hours of treatment at constant temperature, the respective cells were treated with the candidate compound so that a final concentration became 0 to 2 μM. The treated cells were additionally cultured for 72 hours, and cell viability was measured by using an ATP detection method (CellTiter-Glo® Luminescent Cell Viability Assay, Promega).
(In general: ATP-based viability assays read luminescence as a measure of living cells.)

For the next assay, the system named is melanoma cell lines. Description: Cell based assay, cell viability (CellTiter-Glo), melanoma cell lines. The following applies: Homo sapiens; LOX-IMVI cell line. Here is the method:
as §1

Where [2] appears, read: Breast cancer cell line MDA-MB-231-L/DOX, read-out: IC50, MDA-MB-231-L/DOX.
The mark [3] stands for this setting: Homo sapiens, Breast cancer cell line BT-20, read-out: IC50, BT-20.
Where [4] appears, read: Homo sapiens, Breast cancer cell line HCC1395, read-out: IC50, HCC1395.
Setting [5] is: Homo sapiens, Breast cancer cell line HCC1954, read-out: IC50, HCC1954.
The mark [6] stands for this setting: Homo sapiens, Breast cancer cell line JIMT-1, read-out: IC50, JIMT-1.
Setting [7] is: Homo sapiens, Breast cancer cell line MCF7, read-out: IC50, MCF7.
Setting [8] is: Homo sapiens, Breast cancer cell line MDA-MB-231, read-out: IC50, MDA-MB-231.
The mark [9] stands for this setting: Homo sapiens, Breast cancer cell line MDA-MB-468, read-out: IC50, MDA-MB-468.
The mark [10] stands for this setting: Homo sapiens, Breast cancer cell line SK-BR-3, read-out: IC50, SK-BR-3.

Where two headings read alike, the source gives them in different places.

For the compound `CCS(=O)(=O)n1c([S+](C)[O-])c(C(C)=O)c(=O)c2c(Cl)ccc(Br)c21` (centres unmarked) [Compound 39, 3-acetyl-8-bromo-5-chloro-1-(ethylsulfonyl)-2-(methylsulfinyl)quinolin-4(1H)-one], the IC50 in assay [1] (setting [2]) was over 2 µM; in assay [1] (setting [3]) it was over 2 µM; in assay [1] (setting [4]), over 10 µM; in assay [1] (setting [5]), over 2 µM; in assay [1] (setting [6]) it was over 10 µM; in assay [1] (setting [7]) it was over 2 µM. Moreover, the IC50 (in assay [1] (setting [8]); in assay [1] (setting [9]); in assay [1] (setting [10]); with melanoma cell lines) was over 2 µM each time.

In the case of `CSc1c(C(C)=O)c(=O)c2c(Cl)ccc(Br)c2n1S(=O)(=O)c1ccc(C(C)(C)C)cc1` [Compound 40, 3-acetyl-8-bromo-1-((4-(tert-butyl)phenyl)sulfonyl)-5-chloro-2-(methylthio)quinolin-4(1H)-one], the IC50 in assay [1] (setting [2]) was over 2 µM; in assay [1] (setting [3]), over 2 µM; in assay [1] (setting [4]), over 10 µM; in assay [1] (setting [5]), over 2 µM; in assay [1] (setting [6]), over 10 µM; in assay [1] (setting [7]) it was over 2 µM. Moreover, the IC50 (in assay [1] (setting [8]); in assay [1] (setting [9]); in assay [1] (setting [10]); in the assay with melanoma cell lines) was over 2 µM throughout.

As to `CC(=O)c1c(S(C)(=O)=O)n(S(=O)(=O)c2ccc(C(C)(C)C)cc2)c2c(Br)ccc(Cl)c2c1=O` [Compound 41, 3-acetyl-8-bromo-1-((4-(tert-butyl)phenyl)sulfonyl)-5-chloro-2-(methylsulfonyl)quinolin-4(1H)-one], the IC50 was over 2 µM in assay [1] (setting [2]); over 2 µM in assay [1] (setting [3]); over 10 µM in assay [1] (setting [4]); over 2 µM in assay [1] (setting [5]); over 10 µM in assay [1] (setting [6]); over 2 µM in assay [1] (setting [7]). Also, the IC50 (in assay [1] (setting [8]); in assay [1] (setting [9]); in assay [1] (setting [10]); in the assay on melanoma cell lines) was over 2 µM each time.

Regarding `CC(=O)c1c([S+](C)[O-])n(S(=O)(=O)c2ccc(C(C)(C)C)cc2)c2c(Br)ccc(Cl)c2c1=O` (centres unmarked) [Compound 42, 3-acetyl-8-bromo-1-((4-(tert-butyl)phenyl)sulfonyl)-5-chloro-2-(methylsulfinyl)quinolin-4(1H)-one], the IC50 was over 2 µM in assay [1] (setting [2]); over 2 µM in assay [1] (setting [3]); over 10 µM in assay [1] (setting [4]); over 2 µM in assay [1] (setting [5]); over 10 µM in assay [1] (setting [6]); over 2 µM in assay [1] (setting [7]). The IC50 in assay [1] (setting [8]) was over 2 µM; in assay [1] (setting [9]), over 2 µM; in assay [1] (setting [10]), 1.57 µM; in the assay on melanoma cell lines, over 2 µM.

Take `CC(=O)c1c(SCc2cc(Cl)ccc2Cl)[nH]c2c(Br)ccc(Cl)c2c1=O` [Compound 43, 3-acetyl-8-bromo-5-chloro-2-((2,5-dichlorobenzyl)thio)quinolin-4(1H)-one]: the IC50 was over 2 µM in assay [1] (setting [2]); over 2 µM in assay [1] (setting [3]); over 10 µM in assay [1] (setting [4]); over 2 µM in assay [1] (setting [5]); over 10 µM in assay [1] (setting [6]); over 2 µM in assay [1] (setting [7]). The IC50 (in assay [1] (setting [8]); in assay [1] (setting [9]); in assay [1] (setting [10]); in the assay on melanoma cell lines) was over 2 µM each time.

For the compound `CC(=O)c1c(SCc2cc(F)cc(F)c2)[nH]c2c(Br)ccc(Cl)c2c1=O` [Compound 45, 3-acetyl-8-bromo-5-chloro-2-((3,5-difluorobenzyl)thio)quinolin-4(1H)-one], the IC50 in assay [1] (setting [2]) is over 2 µM; in assay [1] (setting [3]), over 2 µM; in assay [1] (setting [4]) it was over 10 µM; in assay [1] (setting [5]), over 2 µM; in assay [1] (setting [6]), over 10 µM; in assay [1] (setting [7]) it was over 2 µM. In addition, the IC50 (in assay [1] (setting [8]); in assay [1] (setting [9]); in assay [1] (setting [10]); with melanoma cell lines) was over 2 µM each time.

As to `CC(=O)c1c(SCc2cccc(I)c2)[nH]c2c(Br)ccc(Cl)c2c1=O` [Compound 47, 3-acetyl-8-bromo-5-chloro-2-((3-iodobenzyl)thio)quinolin-4(1H)-one], the IC50 in assay [1] (setting [2]) was over 2 µM; in assay [1] (setting [3]), over 2 µM; in assay [1] (setting [4]), over 10 µM; in assay [1] (setting [5]), over 2 µM; in assay [1] (setting [6]), over 10 µM; in assay [1] (setting [7]), over 2 µM. In addition, the IC50 (in assay [1] (setting [8]); in assay [1] (setting [9]); in assay [1] (setting [10]); in the assay with melanoma cell lines) was over 2 µM throughout.

Regarding `CC(=O)c1c([S+]([O-])Cc2cccc(I)c2)[nH]c2c(Br)ccc(Cl)c2c1=O` (centres unmarked) [Compound 48, 3-acetyl-8-bromo-5-chloro-2-((3-iodobenzyl)sulfinyl)quinolin-4(1H)-one], the IC50 in assay [1] (setting [2]) is over 2 µM; in assay [1] (setting [3]), over 2 µM; in assay [1] (setting [4]), over 10 µM; in assay [1] (setting [5]), over 2 µM; in assay [1] (setting [6]) it was over 10 µM; in assay [1] (setting [7]), over 2 µM. Further, the IC50 (in assay [1] (setting [8]); in assay [1] (setting [9]); in assay [1] (setting [10]); in the assay with melanoma cell lines) was over 2 µM throughout.

`CC(=O)c1c(SCc2ccccc2)nc2c(Br)ccc(Cl)c2c1O` [Compound 52, 1-(2-(benzylthio)-8-bromo-5-chloro-4-hydroxyquinolin-3-yl)ethan-1-one]: the IC50 in assay [1] (setting [2]) was over 2 µM; in assay [1] (setting [3]), over 2 µM; in assay [1] (setting [4]), over 10 µM; in assay [1] (setting [5]) it was over 2 µM; in assay [1] (setting [6]) it was over 10 µM; in assay [1] (setting [7]) it was over 2 µM. The IC50 (in assay [1] (setting [8]); in assay [1] (setting [9]); in assay [1] (setting [10]); in the assay with melanoma cell lines) was over 2 µM each time.

On to `CC(=O)c1c([S+]([O-])Cc2ccccc2)nc2c(Br)ccc(Cl)c2c1O` (centres unmarked) [Compound 53, 1-(2-(benzylsulfinyl)-8-bromo-5-chloro-4-hydroxyquinolin-3-yl)ethan-1-one], for which the IC50 in assay [1] (setting [2]) was over 2 µM; in assay [1] (setting [3]), over 2 µM; in assay [1] (setting [4]) it was over 10 µM; in assay [1] (setting [5]) it was over 2 µM; in assay [1] (setting [6]) it was over 10 µM; in assay [1] (setting [7]), over 2 µM. Further, the IC50 (in assay [1] (setting [8]); in assay [1] (setting [9]); in assay [1] (setting [10]); in the assay on melanoma cell lines) was over 2 µM throughout.

For `CC(=O)c1c(S(=O)(=O)Cc2ccccc2)nc2c(Br)ccc(Cl)c2c1O` [Compound 54, 1-(2-(benzylsulfonyl)-8-bromo-5-chloro-4-hydroxyquinolin-3-yl)ethan-1-one], the IC50 in assay [1] (setting [2]) is over 2 µM; in assay [1] (setting [3]), over 2 µM; in assay [1] (setting [4]), over 10 µM; in assay [1] (setting [5]), over 2 µM; in assay [1] (setting [6]), over 10 µM; in assay [1] (setting [7]), over 2 µM. Besides, the IC50 (in assay [1] (setting [8]); in assay [1] (setting [9]); in assay [1] (setting [10]); with melanoma cell lines) was over 2 µM throughout.

Consider `CC(=O)c1c([S+]([O-])Cc2ccccc2C#N)[nH]c2c(Br)ccc(Cl)c2c1=O` (centres unmarked) [Compound 58, 2-(((3-acetyl-8-bromo-5-chloro-4-oxo-1,4-dihydroquinolin-2-yl)sulfinyl)methyl)benzonitrile], for which the IC50 in assay [1] (setting [2]) is over 2 µM; in assay [1] (setting [3]) it was over 2 µM; in assay [1] (setting [4]), over 10 µM; in assay [1] (setting [5]) it was over 2 µM; in assay [1] (setting [6]), over 10 µM; in assay [1] (setting [7]), over 2 µM. The IC50 is over 2 µM in assay [1] (setting [8]), over 2 µM in assay [1] (setting [9]), 0.62 µM in assay [1] (setting [10]) and 0.88 µM in the assay on melanoma cell lines.

In the case of `COCSc1[nH]c2c(Br)ccc(Cl)c2c(=O)c1C(C)=O` [Compound 61, 3-acetyl-8-bromo-5-chloro-2-((methoxymethyl)thio)quinolin-4(1H)-one], the IC50 in assay [1] (setting [2]) was over 2 µM; in assay [1] (setting [3]), over 2 µM; in assay [1] (setting [4]), over 10 µM; in assay [1] (setting [5]) it was over 2 µM; in assay [1] (setting [6]), over 10 µM; in assay [1] (setting [7]), over 2 µM. Further, the IC50 (in assay [1] (setting [8]); in assay [1] (setting [9]); in assay [1] (setting [10]); with melanoma cell lines) was over 2 µM each time.

For the compound `CC(=O)c1c(S)[nH]c2c(Br)ccc(Cl)c2c1=O` [Compound 62, 3-acetyl-8-bromo-5-chloro-2-mercaptoquinolin-4(1H)-one], the IC50 is over 2 µM in assay [1] (setting [2]); over 2 µM in assay [1] (setting [3]); over 10 µM in assay [1] (setting [4]); over 2 µM in assay [1] (setting [5]); over 10 µM in assay [1] (setting [6]); over 2 µM in assay [1] (setting [7]). Moreover, the IC50 (in assay [1] (setting [8]); in assay [1] (setting [9]); in assay [1] (setting [10]); in the assay with melanoma cell lines) was over 2 µM throughout.

On to `CC(=O)c1c([S+]([O-])Cc2ccc(C(=O)c3ccccc3)cc2)[nH]c2c(Br)ccc(Cl)c2c1=O` (centres unmarked) [Compound 63, 3-acetyl-2-((4-benzoylbenzyl)sulfinyl)-8-bromo-5-chloroquinolin-4(1H)-one], for which the IC50 in assay [1] (setting [2]) was over 2 µM; in assay [1] (setting [3]), over 2 µM; in assay [1] (setting [4]), over 10 µM; in assay [1] (setting [5]), over 2 µM; in assay [1] (setting [6]), over 10 µM; in assay [1] (setting [7]), over 2 µM. The IC50 (in assay [1] (setting [8]); in assay [1] (setting [9]); in assay [1] (setting [10]); in the assay on melanoma cell lines) was over 2 µM in each case.

On to `CC(=O)c1c([S+]([O-])CC#N)[nH]c2c(Br)ccc(Cl)c2c1=O` (centres unmarked) [Compound 65, 2-((3-acetyl-8-bromo-5-chloro-4-oxo-1,4-dihydroquinolin-2-yl)sulfinyl)acetonitrile], for which the IC50 in assay [1] (setting [2]) is over 2 µM; in assay [1] (setting [3]), over 2 µM; in assay [1] (setting [4]), over 10 µM; in assay [1] (setting [5]) it was over 2 µM; in assay [1] (setting [6]) it was over 10 µM; in assay [1] (setting [7]), over 2 µM. Also, the IC50 (in assay [1] (setting [8]); in assay [1] (setting [9]); in assay [1] (setting [10]); with melanoma cell lines) was over 2 µM each time.

Turning to `CC(=O)c1c(SCC#N)[nH]c2c(Br)ccc(Cl)c2c1=O` [Compound 66, 2-((3-acetyl-8-bromo-5-chloro-4-oxo-1,4-dihydroquinolin-2-yl)thio)acetonitrile], the IC50 in assay [1] (setting [2]) was over 2 µM; in assay [1] (setting [3]) it was over 2 µM; in assay [1] (setting [4]) it was over 10 µM; in assay [1] (setting [5]), over 2 µM; in assay [1] (setting [6]), over 10 µM; in assay [1] (setting [7]), over 2 µM. The IC50 (in assay [1] (setting [8]); in assay [1] (setting [9]); in assay [1] (setting [10]); with melanoma cell lines) was over 2 µM throughout.

The values above are taken from patent US11464770B2, “Anticancer pharmaceutical composition” (NATIONAL CANCER CENTER, priority 2016, dated 2022).
